Assay results: ChEMBL document CHEMBL1136165, “Carbonic anhydrase activators. The selective serotonin reuptake inhibitors fluoxetine, sertraline and citalopram are strong activators of isozymes I and II” (Bioorg Med Chem Lett, 2003)

How the values were obtained:
[1] = biological target: Carbonic anhydrase 1 (Homo sapiens) (UniProt P00915); assay: Maximal activatory effect against human carbonic anhydrase I (hCA I) at a concentration of 1 mM
[2] = biological target: Carbonic anhydrase 1 (Homo sapiens) (UniProt P00915); assay: Maximal activatory effect against human carbonic anhydrase I (hCA I) at a concentration of 1 uM
[3] = biological target: Carbonic anhydrase 1 (Homo sapiens) (UniProt P00915); assay: Maximal activatory effect against human carbonic anhydrase I (hCA I)
[4] = biological target: Carbonic anhydrase 2 (Homo sapiens) (UniProt P00918); assay: Maximal activatory effect against human carbonic anhydrase II (hCA II)

Sequence of Carbonic anhydrase 1 (Homo sapiens) (P00915 2-261 limits assumed): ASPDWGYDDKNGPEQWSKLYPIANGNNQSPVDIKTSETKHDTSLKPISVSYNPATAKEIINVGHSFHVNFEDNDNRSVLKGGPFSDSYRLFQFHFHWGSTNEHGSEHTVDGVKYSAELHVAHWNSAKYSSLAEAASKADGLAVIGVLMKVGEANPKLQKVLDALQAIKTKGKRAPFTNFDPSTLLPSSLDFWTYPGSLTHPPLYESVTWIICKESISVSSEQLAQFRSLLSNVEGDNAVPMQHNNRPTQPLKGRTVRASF

SMILES | Activity [1] | Activity [2] | Activity [3] | Activity [4]
NCCc1c[nH]cn1 | 185% | 165% | – | –
CN[C@H]1CC[C@@H](c2ccc(Cl)c(Cl)c2)c2ccccc21 | – | 145% | 165% | –
CNCCC(Oc1ccc(C(F)(F)F)cc1)c1ccccc1 (stereo not given) | 210% | 175% | – | –
CN(C)CCCC1(c2ccc(F)cc2)OCc2cc(C#N)ccc21 (stereo not given) | – | 134% | 148% | –
N[C@@H](Cc1ccccc1)C(=O)O | – | – | 160% | 210%
